# Assay results taken from patent publication US5725871A, “Drug delivery compositions comprising lysophosphoglycerolipid” (Danbiosyst UK Limited, priority 1989, dated 1998).
# Details: sheep, intranasal 2.0 IU/kg insulin, LPG versus LPC
# Procedure: The sheep were divided into 4 groups of 5 animals each. Group 1 received 2.0 IU/kg insulin together with 2.0 mg/kg SMS 45/25 microspheres (Pharmacia) and 0.2 mg/kg LPC (Formulation 1) intranasally in the form of a lyophilised powder. A sheep of 50 kg thus received 100 IU of insulin together with 100 mg SMS 45/25 microspheres and 10.0 mg LPC. Group 2 received 2.0 IU/kg insulin together with 2.0 mg/kg SMS 45/25 microspheres and 0.2 mg/kg LPG Formulation 2) intranasally in the form of a lyophilised powder. A sheep of 50 kg thus received 100 IU of insulin together with 100 mg SMS 45/25 microspheres and 10.0 mg LPG. Group 3 received 2.0 IU/kg insulin together with 0.02 mg/kg LPC (Formulation 3) intranasally in the form of a solution at 0.01 ml/kg. A sheep of 50 kg thus received 100 IU of insulin together with 1.0 mg LPC in a volume of 0.5 ml. Group 4 received 2.0 IU/kg insulin together with 0.02 mg/kg LPG (Formulation 4) intranasally in the form of a solution at 0.01 ml/kg. A sheep of 50 kg thus received 100 IU of insulin together with 1.0 mg LPG in a volume of 0.5 ml. […]
# Sedation/Blood Sampling: For the intranasal studies, the sheep were sedated by use of an i.v. dose of ketamine hydrochloride (Ketalar (Regd. T.M.), 100 mg/ml injection) at 2.25 mg/kg. […] Each blood sample was divided into two parts and analysed as in Example 1.
substance,measurement,value
L-α-lysophosphatidyl-DL-glycerol [LPG],Plasma glucose levels,lower (i.e. better) with LPG
